Assay results published in ChEMBL document CHEMBL1201862, “PubChem BioAssay data set” (2004).
Blank lines part the entries; values can stand above or below the compound they belong to. Calls of active or inactive are those of the source.

Tests used:
[1] = HEp-2 cell cytotoxicity, dose response, cytotoxicity control for RSV inhibitor project, HTS (AID 2410); format: functional; settings: human respiratory syncytial virus
[2] = target: Cytochrome P450 2C9 (Homo sapiens, UniProt P11712)
[3] = target: T1, Fatty acid synthase (Homo sapiens, UniProt P49327); assay: FAS thioesterase domain inhibitors, dose response, biochemical, endpoint fluorescence intensity, uHTS hits (AID 624327); format: functional;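 also: fluorescence from hydrolysis of an O-methyl fluorescein acyl ester substrate by the enzyme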
T1 sequence (P49327 whole entry, the tested form may be a part): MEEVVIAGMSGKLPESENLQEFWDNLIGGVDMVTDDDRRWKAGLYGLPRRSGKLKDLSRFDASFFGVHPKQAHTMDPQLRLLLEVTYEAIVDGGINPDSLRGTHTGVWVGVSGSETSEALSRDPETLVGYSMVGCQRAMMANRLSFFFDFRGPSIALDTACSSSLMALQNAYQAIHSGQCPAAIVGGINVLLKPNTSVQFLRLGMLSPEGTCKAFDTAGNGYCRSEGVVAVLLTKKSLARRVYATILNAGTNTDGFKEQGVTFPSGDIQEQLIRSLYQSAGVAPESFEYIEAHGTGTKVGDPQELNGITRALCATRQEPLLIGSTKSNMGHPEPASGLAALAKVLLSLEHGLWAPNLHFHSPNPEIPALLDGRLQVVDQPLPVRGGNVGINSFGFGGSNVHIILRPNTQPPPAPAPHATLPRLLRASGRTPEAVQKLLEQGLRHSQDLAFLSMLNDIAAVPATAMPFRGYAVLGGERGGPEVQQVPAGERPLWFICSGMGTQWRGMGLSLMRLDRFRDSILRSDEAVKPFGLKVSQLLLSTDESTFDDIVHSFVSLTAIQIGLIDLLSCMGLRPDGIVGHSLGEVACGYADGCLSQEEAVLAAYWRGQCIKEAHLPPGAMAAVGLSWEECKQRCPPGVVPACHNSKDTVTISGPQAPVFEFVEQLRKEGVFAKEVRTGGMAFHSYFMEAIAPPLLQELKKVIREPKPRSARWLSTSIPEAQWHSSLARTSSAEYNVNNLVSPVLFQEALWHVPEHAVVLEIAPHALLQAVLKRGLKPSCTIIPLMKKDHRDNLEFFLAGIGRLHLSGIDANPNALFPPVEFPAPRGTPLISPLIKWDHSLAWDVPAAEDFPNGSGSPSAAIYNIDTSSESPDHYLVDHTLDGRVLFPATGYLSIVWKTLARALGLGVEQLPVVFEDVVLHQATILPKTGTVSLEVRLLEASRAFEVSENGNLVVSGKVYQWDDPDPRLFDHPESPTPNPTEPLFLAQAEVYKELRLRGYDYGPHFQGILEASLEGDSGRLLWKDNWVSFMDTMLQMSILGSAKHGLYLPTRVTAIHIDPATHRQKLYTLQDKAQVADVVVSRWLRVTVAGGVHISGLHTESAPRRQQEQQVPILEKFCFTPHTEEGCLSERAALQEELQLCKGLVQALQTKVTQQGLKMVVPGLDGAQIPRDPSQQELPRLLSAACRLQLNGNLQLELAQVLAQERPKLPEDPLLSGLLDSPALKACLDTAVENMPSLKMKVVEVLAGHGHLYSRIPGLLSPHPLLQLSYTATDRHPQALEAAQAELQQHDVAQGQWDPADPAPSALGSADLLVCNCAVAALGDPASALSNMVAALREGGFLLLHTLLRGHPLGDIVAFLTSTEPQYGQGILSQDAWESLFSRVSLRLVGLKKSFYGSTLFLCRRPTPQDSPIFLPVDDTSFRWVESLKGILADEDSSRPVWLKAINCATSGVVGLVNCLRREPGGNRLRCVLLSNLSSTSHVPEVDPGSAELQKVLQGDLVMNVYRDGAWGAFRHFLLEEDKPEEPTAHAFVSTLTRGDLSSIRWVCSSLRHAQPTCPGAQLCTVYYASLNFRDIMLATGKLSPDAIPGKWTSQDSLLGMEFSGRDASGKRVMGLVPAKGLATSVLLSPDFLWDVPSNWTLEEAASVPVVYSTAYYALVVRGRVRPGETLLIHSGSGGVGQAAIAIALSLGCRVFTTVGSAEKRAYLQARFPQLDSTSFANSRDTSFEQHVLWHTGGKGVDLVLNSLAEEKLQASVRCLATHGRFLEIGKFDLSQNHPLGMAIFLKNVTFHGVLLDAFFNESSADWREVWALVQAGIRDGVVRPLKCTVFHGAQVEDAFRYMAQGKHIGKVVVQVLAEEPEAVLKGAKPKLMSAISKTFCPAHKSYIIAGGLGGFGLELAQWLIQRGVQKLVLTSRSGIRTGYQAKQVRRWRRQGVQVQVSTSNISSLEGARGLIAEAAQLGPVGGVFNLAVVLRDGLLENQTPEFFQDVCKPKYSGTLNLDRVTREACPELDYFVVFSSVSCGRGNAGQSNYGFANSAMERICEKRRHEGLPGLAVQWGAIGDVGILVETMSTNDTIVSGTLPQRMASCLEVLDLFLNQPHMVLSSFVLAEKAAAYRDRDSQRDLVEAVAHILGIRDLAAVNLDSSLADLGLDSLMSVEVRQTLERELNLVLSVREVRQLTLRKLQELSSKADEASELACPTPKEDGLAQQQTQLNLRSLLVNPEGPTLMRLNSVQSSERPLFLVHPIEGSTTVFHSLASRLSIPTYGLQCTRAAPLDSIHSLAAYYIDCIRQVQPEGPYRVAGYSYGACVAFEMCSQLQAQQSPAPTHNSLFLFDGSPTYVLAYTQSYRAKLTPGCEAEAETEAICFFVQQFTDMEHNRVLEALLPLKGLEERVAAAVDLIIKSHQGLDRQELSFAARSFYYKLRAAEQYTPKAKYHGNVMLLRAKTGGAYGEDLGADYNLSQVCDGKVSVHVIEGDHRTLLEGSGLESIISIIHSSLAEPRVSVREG

[4] = target: T1, Fatty acid synthase; assay: FAS thioesterase domain inhibitors, dose response, biochemical, kinetic fluorescence intensity (AID 624326); format: functional;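 also: rate of fluorescence rise from hydrolysis of a fluorogenic O-methyl fluorescein ester substrate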
[5] = cells
[6] = target: Heat shock cognate 71 kDa protein (Homo sapiens, UniProt P11142); assay: In Vitro Hsc70 Dose Response Fluorescence Polarization Assay. [Related pubchem assays: 1072 ]
Chain of Heat shock cognate 71 kDa protein (P11142 whole entry): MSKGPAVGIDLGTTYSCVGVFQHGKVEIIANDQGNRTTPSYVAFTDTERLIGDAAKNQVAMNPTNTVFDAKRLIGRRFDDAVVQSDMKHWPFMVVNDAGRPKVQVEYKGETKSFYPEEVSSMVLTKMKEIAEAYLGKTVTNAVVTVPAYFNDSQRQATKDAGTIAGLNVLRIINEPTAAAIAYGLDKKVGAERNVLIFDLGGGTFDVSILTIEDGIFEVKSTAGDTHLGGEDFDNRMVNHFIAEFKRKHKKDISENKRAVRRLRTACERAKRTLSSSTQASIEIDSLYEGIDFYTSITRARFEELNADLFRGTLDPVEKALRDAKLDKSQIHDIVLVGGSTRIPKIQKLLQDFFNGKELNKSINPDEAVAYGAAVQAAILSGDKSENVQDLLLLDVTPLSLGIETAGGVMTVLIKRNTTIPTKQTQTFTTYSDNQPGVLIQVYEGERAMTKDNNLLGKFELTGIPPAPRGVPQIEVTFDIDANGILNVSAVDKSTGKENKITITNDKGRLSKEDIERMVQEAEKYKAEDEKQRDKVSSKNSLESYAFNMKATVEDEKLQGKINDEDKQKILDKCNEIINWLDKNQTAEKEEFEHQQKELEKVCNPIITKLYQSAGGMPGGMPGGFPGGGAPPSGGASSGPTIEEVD

[7] = target: Heat shock 70 kDa protein 1A (Homo sapiens, UniProt P0DMV8); assay: Hsp70 inhibitors, SAR follow-up, biochemical, fluorescence polarization (AID 1072)
Chain of Heat shock 70 kDa protein 1A (P0DMV8 whole entry): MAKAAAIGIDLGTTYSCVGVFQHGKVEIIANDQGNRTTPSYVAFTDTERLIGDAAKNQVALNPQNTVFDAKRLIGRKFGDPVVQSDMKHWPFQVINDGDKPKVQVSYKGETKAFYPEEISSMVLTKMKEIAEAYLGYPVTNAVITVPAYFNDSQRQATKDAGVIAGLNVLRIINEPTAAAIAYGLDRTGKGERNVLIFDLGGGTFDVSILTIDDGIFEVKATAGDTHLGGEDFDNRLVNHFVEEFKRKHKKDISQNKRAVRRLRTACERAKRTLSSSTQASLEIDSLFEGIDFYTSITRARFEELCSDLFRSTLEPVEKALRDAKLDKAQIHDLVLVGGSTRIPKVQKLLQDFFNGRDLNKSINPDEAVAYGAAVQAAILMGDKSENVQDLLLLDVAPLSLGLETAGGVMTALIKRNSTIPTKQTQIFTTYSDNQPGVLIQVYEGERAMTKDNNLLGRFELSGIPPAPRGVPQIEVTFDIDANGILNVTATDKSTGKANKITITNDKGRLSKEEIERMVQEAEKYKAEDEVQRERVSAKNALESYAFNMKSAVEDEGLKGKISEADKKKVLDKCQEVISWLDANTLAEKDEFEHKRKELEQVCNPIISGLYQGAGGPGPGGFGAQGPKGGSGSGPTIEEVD

[8] = target: Photoreceptor-specific nuclear receptor (Homo sapiens, UniProt Q9Y5X4); format: functional;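 also: potency for compounds that break the NR2E3 corepressor complex and count as activators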
Chain of Photoreceptor-specific nuclear receptor (Q9Y5X4 whole entry): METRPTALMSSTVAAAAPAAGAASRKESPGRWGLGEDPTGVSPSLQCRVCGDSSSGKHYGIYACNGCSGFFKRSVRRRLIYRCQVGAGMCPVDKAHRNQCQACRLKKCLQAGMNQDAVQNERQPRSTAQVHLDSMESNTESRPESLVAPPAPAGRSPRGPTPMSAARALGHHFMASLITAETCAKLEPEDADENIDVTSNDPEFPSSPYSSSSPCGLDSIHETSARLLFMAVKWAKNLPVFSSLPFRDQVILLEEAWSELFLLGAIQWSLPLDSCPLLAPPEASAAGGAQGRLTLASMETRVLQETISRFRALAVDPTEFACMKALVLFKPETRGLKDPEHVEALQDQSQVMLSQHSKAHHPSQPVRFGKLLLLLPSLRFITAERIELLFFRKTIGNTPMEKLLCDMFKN

[9] = target: Peroxisome proliferator-activated receptor gamma/Nuclear receptor coactivator 3 (Homo sapiens, UniProt P37231); assay: TR-FRET dose response biochemical High Throughput Screening assay for agonists of the steroid receptor coactivator 3 (SRC-3) recruitment by the peroxisome proliferator-activated receptor gamma (PPAR gamma): non-selective agonists. [Related pubchem assays: 1301 (Confirmation screen.), 1048 (Primary screen.)]; format: functional
[10] = target: Peroxisome proliferator-activated receptor gamma/Nuclear receptor coactivator 2 (Homo sapiens, UniProt P37231); assay: (§1) TR-FRET dose response biochemical High Throughput Screening assay for agonists of the steroid receptor coactivator 2 (SRC-2) recruitment by the peroxisome proliferator-activated receptor gamma (PPAR gamma): non-selective agonists. [Related pubchem assays: 1297, 1032 ]; format: functional
[11] = target: Peroxisome proliferator-activated receptor gamma/Nuclear receptor coactivator 1 (Homo sapiens, UniProt P37231); assay: as §1, with “1 (SRC-1)” for “2 (SRC-2)”, “assays (depositor defined):AID1300, AID1808, AID504735, AID631]” for “assays: 1297, 1032 ]”; format: protein assay
[12] = target: Peroxisome proliferator-activated receptor gamma/Nuclear receptor corepressor 2 (Homo sapiens, UniProt P37231+Q9Y618); format: functional

Chain of Cytochrome P450 2C9 (P11712 whole entry, the tested form may be a part): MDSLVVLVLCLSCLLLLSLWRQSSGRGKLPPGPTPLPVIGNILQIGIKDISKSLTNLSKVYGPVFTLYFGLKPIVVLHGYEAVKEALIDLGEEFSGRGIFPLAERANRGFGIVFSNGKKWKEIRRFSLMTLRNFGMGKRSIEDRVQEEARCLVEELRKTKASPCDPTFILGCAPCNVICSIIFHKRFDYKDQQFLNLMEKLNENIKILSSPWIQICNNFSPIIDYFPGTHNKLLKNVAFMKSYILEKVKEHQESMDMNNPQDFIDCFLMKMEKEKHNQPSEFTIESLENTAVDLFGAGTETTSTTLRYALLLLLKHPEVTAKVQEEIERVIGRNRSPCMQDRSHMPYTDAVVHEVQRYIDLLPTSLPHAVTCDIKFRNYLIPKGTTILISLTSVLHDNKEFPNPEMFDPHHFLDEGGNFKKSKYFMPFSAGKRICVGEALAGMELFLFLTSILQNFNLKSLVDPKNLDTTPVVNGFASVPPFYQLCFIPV

Structure (SMILES): Cc1ccc2cc3cc(C(=O)N4CCCCC4C)oc3nc2c1 (configuration not stated)
CC50 [1]: > 50 µM (active) | AC50 [2]: inconclusive | IC50 [3]: 2.28 µM (active) | IC50 [4]: 4.44 µM (active) | IC50 [5]: 21.4 µM (active)

Structure (SMILES): O=C(O)CCc1c2ccc(=O)c(O)c-2oc2c(O)c(O)ccc12
IC50 [6]: 3.98 µM (active) | IC50 [7]: 0.578 µM (active)

IC50 [8]: > 39.8 µM (not active) | EC50 [9]: > 79.4 µM (not active) | EC50 [10]: > 79.4 µM (not active) | EC50 [11]: > 79.4 µM (inactive) | IC50 [12]: 6.29 µM (active)
Structure (SMILES): COC(=O)c1cc(Br)c(=O)n(-c2nccs2)c1
